Tested on: brown marmorated stink bug (BMSB), Halyomorpha halys
Assay: Synergy trials for attraction of BMSB to #10 and MDT, black pyramid traps
Assay type: in vivo
Description: Synergy trials for attraction of BMSB to #10 and methyl (2E,4E,6Z)-decatrieonate (MDT): From 6 Apr. to 23 Oct. […] Va. (3 replicates), we tested the following four treatments for attraction of BMSB adults and nymphs, using a full-sized black pyramid trap adapted for BMSB (see above): (1) #10 lure (Table 4) replaced every 2 weeks; (2) #3 lure, MDT, (Sterling International, Spokane, Wash.; ˜119 mg loading; see text below), replaced every 4 weeks; (3) #14 lure, in which #10 and MDT lures hung together in trap, replaced as above for each lure; and (4) no lure (control).
The MDT lure obtained from Sterling International was extracted with pentane which yielded 420 mg of crude product. According to TLC analysis on silica using dichloromethane, the extracted material contained MTD (Rf 0.46) plus unknown chemical(s) with Rf 0.20. This material was flash chromatographed on silica with hexane:dichloromethane, 1:1, to obtain 119 mg of pure MDT. The identity of MDT was re-confirmed by comparison of the gas chromatographic retention time and mass-spectrum with those of a standard prepared according to Khrimian (Khrimian, A., Tetrahedron, 61: 3651-3657 (2005)).
Traps were checked and collected twice-weekly in Beltsville, and weekly in Arden, as described previously, and the treatments were re-randomized at each collection. Field trapping results were summed by approximately two-week intervals, and the totals for each replicate analyzed by ANOVA and additionally with Tukey's HSD multiple comparisons at α=0.05 if the overall 1-way ANOVA F-test was significant at α=0.05. In addition, a two-way ANOVA with interaction was tested to determine if the combined lure provoked a different level of attractiveness (a significant interaction) than would be expected from a combination of the attractiveness of each separate lure type. Such an interaction, with numbers exceeding the expected attraction for the combined lure, represents a true synergy of the two lures.

[1] = Arden, WV 2012, 15May-23 Oct, TOTAL
[2] = Arden, WV 2012, Aug2-13, 11-day total
[3] = Arden, WV 2012, Aug13-27, 14-day total
[4] = Arden, WV 2012, Aug27-Sep10, 14-day total
[5] = Arden, WV 2012, July2-17, 15-day total
[6] = Arden, WV 2012, July17-Aug2, 16-day total
[7] = Arden, WV 2012, June4-19, 15-day total
[8] = Arden, WV 2012, June19-July2, 13-day total
[9] = Arden, WV 2012, May 16-23, 7-day total
[10] = Arden, WV 2012, May23-Jun4, 14-day total
[11] = Arden, WV 2012, Oct9-23, 14-day total
[12] = Arden, WV 2012, Sep10-24, 14-day total
[13] = Arden, WV 2012, Sep24-Oct9, 17-day total
[14] = Arden, WV, 3 replicates, 20 May through 23 Oct. 2012
[15] = Arden, WV, 20 May through 23 Oct. 2012
[16] = Beltsville, MD 2012, 4-22 May, 18-day total, 4 traps/trtmt
[17] = Beltsville, MD 2012, 5-19 June, 14-day total, 4 traps/trtmt
[18] = Beltsville, MD 2012, 5-23Oct, 18-day total, 4 traps/trtmt
[19] = Beltsville, MD 2012, 6-20 April, 14-day total, 4 traps/trtmt
[20] = Beltsville, MD 2012, 6APR-23OCT, Total
[21] = Beltsville, MD 2012, 6APR-23OCT, Total, 4 traps/trtmt
[22] = Beltsville, MD 2012, 7-21 Sept, 14-day total, 4 traps/trtmt
[23] = Beltsville, MD 2012, 10-24 Aug, 14-day total, 4 traps/trtmt
[24] = Beltsville, MD 2012, 13-27 July
[25] = Beltsville, MD 2012, 13-27 July, 14-day total, 4 traps/trtmt
[26] = Beltsville, MD 2012, 19-29 June
[27] = Beltsville, MD 2012, 19-29 June, 10-day total, 4 traps/trtmt
[28] = Beltsville, MD 2012, 20 April-4 May, 14-day total, 4 traps/trtmt
[29] = Beltsville, MD 2012, 21Sep-5 Oct
[30] = Beltsville, MD 2012, 21Sep-5 Oct, 14-day total, 4 traps/trtmt
[31] = Beltsville, MD 2012, 24Aug-7Sept
[32] = Beltsville, MD 2012, 24Aug-7Sept, 14-day total, 4 traps/trtmt
[33] = Beltsville, MD 2012, 27 July-10 Aug
[34] = Beltsville, MD 2012, 27 July-10 Aug, 14-day total, 4 traps/trtmt
[35] = Beltsville, MD 2012, 29 June-13 July
[36] = Beltsville, MD 2012, 29 June-13 July, 14-day total, 4 traps/trtmt
[37] = Beltsville, MD, 4 replicates, 6 April through 23 Oct. 2012
[38] = Beltsville, MD, 6 April through 23 Oct. 2012

In the case of CCC\C=C/C=C/C=C/C(=O)OC [Lure #3, Methyl (2E,4E,6Z)-decatrienoate], the adults captured [1] is reported as 999, the “adults captured (% of total)” value [1] is reported as 17.9% and the nymphs captured [1] is reported as 386. For the same compound, the “nymphs captured (% of total)” value [1] was 18.4%, the “adults captured (% of total)” value (Arden, WV 2012, Aug2-13) was 10.40% and the “nymphs captured (% of total)” value (Arden, WV 2012, Aug2-13) was 9.5%. The adults captured [2] was 7, the nymphs captured [2] was 38 and the “adults captured (% of total)” value (Arden, WV 2012, Aug13-27) was 3.10%. The “nymphs captured (% of total)” value (Arden, WV 2012, Aug13-27) was 10.0%, the adults captured [3] was 4 and the nymphs captured [3] was 51. For the same compound, the “adults captured (% of total)” value (Arden, WV 2012, Aug27-Sep10) was 1.60%, the “nymphs captured (% of total)” value (Arden, WV 2012, Aug27-Sep10) was 42.8% and the adults captured [4] was 3. The nymphs captured [4] was 68, the “adults captured (% of total)” value (Arden, WV 2012, July2-17) was 0% and the “nymphs captured (% of total)” value (Arden, WV 2012, July2-17) was 5.0%. For the same compound, the adults captured [5] was 0, the nymphs captured [5] was 8 and the “adults captured (% of total)” value (Arden, WV 2012, July17-Aug2) was 0%. For the same compound, the “nymphs captured (% of total)” value (Arden, WV 2012, July17-Aug2) was 22.2%, the adults captured [6] was 0 and the nymphs captured [6] was 8. For the same compound, the “adults captured (% of total)” value (Arden, WV 2012, June4-19) was 0%, the adults captured [7] was 0 and the nymphs captured [7] was 0. The “adults captured (% of total)” value (Arden, WV 2012, June19-July2) was 0%, the “nymphs captured (% of total)” value (Arden, WV 2012, June19-July2) was 0% and the adults captured [8] was 0. For the same compound, the nymphs captured [8] was 0, the “adults captured (% of total)” value (Arden, WV 2012, May 16-23) was 0% and the adults captured [9] was 0. For the same compound, the nymphs captured [9] was 0, the “adults captured (% of total)” value (Arden, WV 2012, May23-Jun4) was 0% and the adults captured [10] was 0. The nymphs captured [10] was 0, the “adults captured (% of total)” value (Arden, WV 2012, Oct9-23) was 28.90% and the “nymphs captured (% of total)” value (Arden, WV 2012, Oct9-23) was 60.5%. For the same compound, the adults captured [11] was 120, the nymphs captured [11] was 20 and the “adults captured (% of total)” value (Arden, WV 2012, Sep10-24) was 12.70%. For the same compound, the “nymphs captured (% of total)” value (Arden, WV 2012, Sep10-24) was 23.9%, the adults captured [12] was 333 and the nymphs captured [12] was 135. The “adults captured (% of total)” value (Arden, WV 2012, Sep24-Oct9) was 25.20%, the “nymphs captured (% of total)” value (Arden, WV 2012, Sep24-Oct9) was 25.7% and the adults captured [13] was 532. For the same compound, the nymphs captured [13] was 58, the “Season-long total captures of BMSB adults” value [14] was 999 b and the “Season-long total captures of BMSB nymphs” value [14] was 386 b. For the same compound, the “Season-long captures of BMSB adults, share of TOTAL” value [15] was 17.9%, the “Season-long captures of BMSB nymphs, share of TOTAL” value [15] was 18.4% and the “adults captured (% of total)” value (Beltsville, MD 2012, 4-22 May) was 2.10%. For the same compound, the adults captured [16] was 2, the nymphs captured [16] was 0 and the “adults captured (% of total)” value (Beltsville, MD 2012, 5-19 June) was 4.20%. For the same compound, the “nymphs captured (% of total)” value (Beltsville, MD 2012, 5-19 June) was 25.10%, the adults captured [17] was 6 and the nymphs captured [17] was 63. For the same compound, the “adults captured (% of total)” value (Beltsville, MD 2012, 5-23Oct) was 17.50%, the “nymphs captured (% of total)” value (Beltsville, MD 2012, 5-23Oct) was 35.70% and the adults captured [18] was 6. For the same compound, the nymphs captured [18] was 5, the “adults captured (% of total)” value (Beltsville, MD 2012, 6-20 April) was 10.20% and the adults captured [19] was 6. For the same compound, the nymphs captured [19] was 0, the “adults captured (% of total)” value [20] was 10.40% and the “nymphs captured (% of total)” value [20] was 28.30%. For the same compound, the adults captured [21] was 1203, the nymphs captured [21] was 1823 and the “adults captured (% of total)” value (Beltsville, MD 2012, 7-21 Sept) was 20.30%. The “nymphs captured (% of total)” value (Beltsville, MD 2012, 7-21 Sept) was 30.00%, the adults captured [22] was 314 and the nymphs captured [22] was 36. For the same compound, the “adults captured (% of total)” value (Beltsville, MD 2012, 10-24 Aug) was 4.60%, the “nymphs captured (% of total)” value (Beltsville, MD 2012, 10-24 Aug) was 14.80% and the adults captured [23] was 7. For the same compound, the nymphs captured [23] was 212, the “adults captured (% of total)” value [24] was 0.00% and the “nymphs captured (% of total)” value [24] was 20.30%. For the same compound, the adults captured [25] was 0, the nymphs captured [25] was 13 and the “adults captured (% of total)” value [26] was 0.00%. The “nymphs captured (% of total)” value [26] was 1.30%, the adults captured [27] was 0 and the nymphs captured [27] was 6. For the same compound, the “adults captured (% of total)” value (Beltsville, MD 2012, 20 April-4 May) was 21.90%, the adults captured [28] was 7 and the nymphs captured [28] was 0. For the same compound, the “adults captured (% of total)” value [29] was 27.90%, the “nymphs captured (% of total)” value [29] was 40.50% and the adults captured [30] was 440. The nymphs captured [30] was 17, the “adults captured (% of total)” value (Beltsville, MD 2012, 22 May-5 June) was 2.90% and the “nymphs captured (% of total)” value (Beltsville, MD 2012, 22May-5June) was 38.90%. The adults captured (Beltsville, MD 2012, 22 May-5 June, 14-day total, 4 traps/trtmt) was 3, the nymphs captured (Beltsville, MD 2012, 22May-5June, 14-day total, 4 traps/trtmt) was 7 and the “adults captured (% of total)” value [31] was 22.20%. The “nymphs captured (% of total)” value [31] was 41.80%, the adults captured [32] was 393 and the nymphs captured [32] was 1018. For the same compound, the “adults captured (% of total)” value [33] was 6.10%, the “nymphs captured (% of total)” value [33] was 30.80% and the adults captured [34] was 14. The nymphs captured [34] was 406, the “adults captured (% of total)” value [35] was 8.60% and the “nymphs captured (% of total)” value [35] was 14.50%. The adults captured [36] was 5, the nymphs captured [36] was 40 and the “Season-long total captures of BMSB adults” value [37] was 1203 b. For the same compound, the “Season-long total captures of BMSB nymphs” value [37] was 1823 b, the “Season-long captures of BMSB adults, share of TOTAL” value [38] was 20.4% and the “Season-long captures of BMSB nymphs, share of TOTAL” value [38] was 28.3%.

— patent US9451771B2, “Compositions and methods to attract the brown marmorated stink bug (BMSB), Halyomorpha halys” (United States of America as Represented by the Secretary of …, priority 2012, dated 2016)
